Values of other authors, collected in patent EP1096056A1, “Wrinkle resistant composition” (THE PROCTER & GAMBLE COMPANY, priority 1999, dated 2001).
Structures can show the parent of a compound that is named as a salt.

Assays:
[1] = in water

| water solubility [1] | SMILES | stability over a wide pH range |
| --- | --- | --- |
|  | Cn1sc2c(c1=O)CCC2 [Promexal, 2-methyl-4,5-trimethylene-4-isothiazolin-3-one] | 4-12 |
|  | O=c1[nH]sc2ccccc12 [Proxel, 1,2-benzisothiazolin-3-one] | 4-12 |
| about 1.8% | [H]/N=C(\N/C(=N/[H])NCCCCCCNC(=N)NC(=N)Nc1ccc(Cl)cc1)Nc1ccc(Cl)cc1 [diacetate salt, 1,1'-hexamethylene bis(5-(p-chlorophenyl)biguanide)] |  |
| about 70% | [H]/N=C(\N/C(=N/[H])NCCCCCCNC(=N)NC(=N)Nc1ccc(Cl)cc1)Nc1ccc(Cl)cc1 [digluconate salt, 1,1'-hexamethylene bis(5-(p-chlorophenyl)biguanide)] |  |

| SMILES | water solubility [1] | stability over a wide pH range |
| --- | --- | --- |
| [Na+].[O-][n+]1ccccc1[S-] [sodium pyrithione] | about 50% |  |
